Several values for one entry are separate records, joined by “and”; a condition that tells them apart may be missing. Equal values may be shown once. Toxic doses and inconclusive results are not listed. Cut-off read from the data, not from the text of the source: active = T/C of 150% or more; inactive = T/C below 125%.
Test system: L1210 leukemia ip in BDF1 mice, survival T/C
Assay: NCI In Vivo Anticancer Drug Screen. Data for tumor model L1210 Leukemia (intraperitoneal) in B6D2F1 (BDF1) mice
Settings: endpoint: mean survival time, higher = longer survival
How it was run: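 Value reflects the ratio of survival in compound-treated mice to survival in vehicle-treated controls, with both groups carrying the same transplanted tumor.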

[1] = dose: 100.0 mg/kg/injection, schedule: Q04DX003 (ip), vehicle: Klucel (hydroxypropylcellulose) (HPC)
[2] = dose: 200.0 mg/kg/injection, schedule: Q04DX003 (ip), vehicle: Klucel (hydroxypropylcellulose) (HPC)
[3] = dose: 400.0 mg/kg/injection, schedule: Q04DX003 (ip), vehicle: Klucel (hydroxypropylcellulose) (HPC)
[4] = dose: 100.0 mg/kg/injection, schedule: Q01DX001 (ip), vehicle: saline
[5] = dose: 200.0 mg/kg/injection, schedule: Q01DX001 (ip), vehicle: saline
[6] = dose: 400.0 mg/kg/injection, schedule: Q01DX001 (ip), vehicle: saline
[7] = dose: 100.0 mg/kg/injection, schedule: Q01DX009 (ip), vehicle: Klucel (hydroxypropylcellulose) (HPC)
[8] = dose: 200.0 mg/kg/injection, schedule: Q01DX009 (ip), vehicle: Klucel (hydroxypropylcellulose) (HPC)
[9] = dose: 100.0 mg/kg/injection, schedule: Q01DX009 (ip), vehicle: saline
[10] = dose: 100.0 mg/kg/injection, schedule: Q04DX003 (ip), vehicle: saline
[11] = dose: 200.0 mg/kg/injection, schedule: Q01DX009 (ip), vehicle: saline
[12] = dose: 200.0 mg/kg/injection, schedule: Q04DX003 (ip), vehicle: saline
[13] = dose: 400.0 mg/kg/injection, schedule: Q01DX009 (ip), vehicle: saline
[14] = dose: 400.0 mg/kg/injection, schedule: Q04DX003 (ip), vehicle: saline
[15] = dose: 50.0 mg/kg/injection, schedule: Q01DX009 (ip), vehicle: saline
[16] = dose: 100.0 mg/kg/injection, schedule: Q01DX001 (ip), vehicle: carboxymethylcellulose (CMC)
[17] = dose: 200.0 mg/kg/injection, schedule: Q01DX001 (ip), vehicle: carboxymethylcellulose (CMC)
[18] = dose: 400.0 mg/kg/injection, schedule: Q01DX001 (ip), vehicle: carboxymethylcellulose (CMC)
[19] = dose: 100.0 mg/kg/injection, schedule: Q04DX002 (ip), vehicle: saline with Tween-80
[20] = dose: 200.0 mg/kg/injection, schedule: Q04DX002 (ip), vehicle: saline with Tween-80
[21] = dose: 400.0 mg/kg/injection, schedule: Q04DX002 (ip), vehicle: saline with Tween-80
[22] = dose: 400.0 mg/kg/injection, schedule: Q01DX009 (ip), vehicle: Klucel (hydroxypropylcellulose) (HPC)

Measured: T/C

CCC(=O)OCC1CCC(COC(=O)CC)CC1 (stereo not drawn)
inactive: dose: 222.0 mg/kg/injection, schedule: Q01DX Z (ip), vehicle: methylcellulose (MC) 100 % of control | dose: 333.0 mg/kg/injection, schedule: Q01DX Z (ip), vehicle: methylcellulose (MC) 96 % of control | dose: 500.0 mg/kg/injection, schedule: Q01DX Z (ip), vehicle: methylcellulose (MC) 97 % of control

Cc1ccc(-c2nc(N)[nH]c(=O)c2CCCN(c2ccccc2)S(=O)(=O)c2ccc(C)cc2)cc1
inactive: [1] 102 % of control | [2] 101 % of control | [3] 102 % of control

CCCCCCCCCCCCCCn1cnc2c(=S)nc[nH]c21
inactive: dose: 12.5 mg/kg/injection, schedule: Q01DX005 (ip), vehicle: other 101 % of control | dose: 25.0 mg/kg/injection, schedule: Q01DX005 (ip), vehicle: other 101 % of control | dose: 50.0 mg/kg/injection, schedule: Q01DX005 (ip), vehicle: other 96 % of control | dose: 100.0 mg/kg/injection, schedule: Q01DX005 (ip), vehicle: other 96 % of control | dose: 200.0 mg/kg/injection, schedule: Q01DX005 (ip), vehicle: other 95 % of control

O=[N+]([O-])c1ccccc1C1ON1C1CCCCC1 (stereo not drawn)
inactive: [4] 97 % of control | [5] 97 % of control | [6] 90 % of control

CN(C)CCCN=NNc1nc[nH]c1C(N)=O
inactive: dose: 100.0 mg/kg/injection, schedule: Q01DX001 (ip), vehicle: Klucel (hydroxypropylcellulose) (HPC) 95 % of control | [1] 108 % of control | dose: 200.0 mg/kg/injection, schedule: Q01DX001 (ip), vehicle: Klucel (hydroxypropylcellulose) (HPC) 91 % of control | [2] 92 % of control | dose: 400.0 mg/kg/injection, schedule: Q01DX001 (ip), vehicle: Klucel (hydroxypropylcellulose) (HPC) 95 % of control

O=C(Nc1cccc(O)c1)Nc1cccc(Cl)c1Cl
inactive: dose: 100.0 mg/kg/injection, schedule: Q01DX009 (ip), vehicle: saline with Tween-80 91 % of control | dose: 200.0 mg/kg/injection, schedule: Q01DX009 (ip), vehicle: saline with Tween-80 92 % of control | dose: 400.0 mg/kg/injection, schedule: Q01DX009 (ip), vehicle: saline with Tween-80 94 % of control

CN1C(=O)CCS(=O)(=O)C1c1ccc(Cl)cc1 (stereo not drawn)
inactive: dose: 25.0 mg/kg/injection, schedule: Q01DX009 (ip), vehicle: Klucel (hydroxypropylcellulose) (HPC) 104 % of control | dose: 25.0 mg/kg/injection, schedule: Q04DX003 (ip), vehicle: Klucel (hydroxypropylcellulose) (HPC) 94 % of control | dose: 50.0 mg/kg/injection, schedule: Q01DX009 (ip), vehicle: Klucel (hydroxypropylcellulose) (HPC) 103 % of control | dose: 50.0 mg/kg/injection, schedule: Q04DX003 (ip), vehicle: Klucel (hydroxypropylcellulose) (HPC) 101 % of control | [7] 101 % of control | [1] 101 % of control | [8] 92 % of control | [2] 97 % of control | [3] 99 % of control

Cn1c(=O)c2c(ncn2CCO)n(C)c1=O
inactive: [4] 100 % of control | [9] 99 % of control | [10] 104 % of control | [5] 104 % of control | [11] 100 % of control | [12] 101 % of control | [6] 102 % of control | [13] 105 % of control | [14] 100 % of control

CCCN(CCC)C(=O)CCC(C)O (stereo not drawn)
inactive: dose: 100.0 mg/kg/injection, schedule: Q01DX001 (ip), vehicle: acetone 113 % of control | dose: 200.0 mg/kg/injection, schedule: Q01DX001 (ip), vehicle: acetone 101 % of control | dose: 400.0 mg/kg/injection, schedule: Q01DX001 (ip), vehicle: acetone 103 % of control

Cc1ccc(S(=O)(=O)NCCCCCC(=O)OCc2ccccc2)cc1
inactive: [15] 97 % of control | [9] 94 % of control and 100 % of control | [10] 108 % of control | [11] 96 % of control and 104 % of control | [12] 101 % of control | [13] 94 % of control | [14] 100 % of control

CCOC(=O)C(=CN1CCCCCC1)C(=O)OCC
inactive: [10] 106 % of control | [12] 97 % of control | [14] 89 % of control

Cc1ccc(CSc2ccc([N+](=O)[O-])cc2[N+](=O)[O-])cc1
inactive: [16] 113 % of control | [17] 98 % of control | [18] 92 % of control

Nc1cc(Cl)nc(Cl)n1
inactive: dose: 29.0 mg/kg/injection, schedule: Q01DX Z (ip), vehicle: methylcellulose (MC) 89 % of control | dose: 45.0 mg/kg/injection, schedule: Q01DX Z (ip), vehicle: methylcellulose (MC) 100 % of control | dose: 67.0 mg/kg/injection, schedule: Q01DX Z (ip), vehicle: methylcellulose (MC) 96 % of control | dose: 100.0 mg/kg/injection, schedule: Q01DX Z (ip), vehicle: methylcellulose (MC) 92 % of control

Cc1ccc(NC(=O)Nc2ccccc2Cl)c(C)c1
inactive: [16] 93 % of control | [17] 101 % of control | [18] 98 % of control

CCOC(=O)C(=O)C(=O)OCC
inactive: [19] 101 % of control | [20] 107 % of control | [21] 88 % of control

CS(=O)(=O)OCC1CCCO1 (stereo not drawn)
inactive: dose: 50.0 mg/kg/injection, schedule: Q01DX001 (ip), vehicle: saline 107 % of control | [4] 98 % of control | [7] 98 % of control | [1] 108 % of control | [5] 98 % of control | [8] 111 % of control | [2] 103 % of control | [6] 101 % of control | [22] 93 % of control | [3] 104 % of control

O=C1NC23CC=CCC12CCC3 (stereo not drawn)
inactive: dose: 100.0 mg/kg/injection, schedule: Q04DX002 (ip), vehicle: saline 100 % of control | dose: 200.0 mg/kg/injection, schedule: Q04DX002 (ip), vehicle: saline 93 % of control | dose: 400.0 mg/kg/injection, schedule: Q04DX002 (ip), vehicle: saline 109 % of control

CC(C)CCCC(C)C1CCC2C3CC=C4CC(O[N+](=O)[O-])CCC4(C)C3CCC12C (stereo not drawn)
inactive: [19] 102 % of control | [20] 112 % of control | [21] 102 % of control

c1ccc2cc(SSc3ccc4ccccc4c3)ccc2c1
inactive: [1] 95 % of control | [2] 89 % of control | [3] 86 % of control

Cc1ccccc1SC(=O)Nc1cc(C(F)(F)F)ccc1Cl
inactive: [7] 100 % of control | [8] 98 % of control | [22] 100 % of control

CCOC(=O)N1C=Cn2c(cnc2C)C1OCC (stereo not drawn)
inactive: [15] 109 % of control | [9] 100 % of control and 92 % of control | [10] 91 % of control | [11] 110 % of control and 90 % of control | [12] 94 % of control | [13] 92 % of control

CC(O)C1CCN(Cc2ccccc2)CC1 (stereo not drawn)
inactive: dose: 50.0 mg/kg/injection, schedule: Q01DX001 (ip), vehicle: carboxymethylcellulose (CMC) 101 % of control | [16] 108 % of control | [17] 106 % of control

O=C(c1ccccc1)c1cc(Cl)ccc1N1C(=O)C=CC1=O
inactive: dose: 25.0 mg/kg/injection, schedule: Q04DX002 (ip), vehicle: saline with Tween-80 90 % of control
